Measured values taken from US20080261911A1, “Uses of diphenyl/diphenylamine carboxylic acids” (priority 2006, published 2008).

Columns and labels:
VEGF = experiment: Immunostaining of VEGF in Panc-1 cells; type: cell-based; conditions: 50 μM, 48 hr
Description: Panc1 cells are seeded in LAB-TEK® chamber slides (Nalge Nunc International, Naperville, Ill.) at 100,000 cells/well in DME/F12 medium supplemented with 5% fetal bovine serum. Cells are treated with the selected non-steroidal anti-inflammatory drugs and after 48 hr, the media chamber is detached and the remaining glass slides washed in Dulbecco's phosphate buffered saline (PBS). The immunostaining for vascular endothelial growth factor (VEGF) is determined essentially as previously described (Abdelrahim et al, 2005). Briefly, the glass slides are fixed with cold (-20° C.) methanol for 10 min and washed in 0.3% PBS/Tween for 5 min (two times) before blocking with 5% goat serum in antibody dilution buffer (stock solution: 100 ml of PBS/Tween, Ig of bovine serum albumin, 45 ml of glycerol, pH 8.0) for 1 hr at 20° C. After removal of the blocking solution, VEGF rabbit polyclonal antibody (A-20) is added in antibody dilution buffer (1:200) and incubated for 12 hr at 4° C. Slides are washed for 10 min with 0.3% Tween in 0.02 M phosphate buffered saline (three times) and incubated with fluorescein isothiocyanate-conjugated (FITC) goat anti-rabbit antibodies (1:1000 dilution) for 2 hr at 20° C. Slides are then washed for 10 min in 0.3% PBS-Tween (four times). […]

Panc-1 cells = experiment: Panc-1 cell migration (scratch) assay on collagen IV-coated plates; type: cell-based; conditions: 50 μM; for VEGF-B-induced cell migration: VEGF-B 50 ng/ml, 16 h
Description: Cells were pretreated with DMSO, 50 μM ampiroxicam, or 50 μM tolfenamic acid for 36 hr; VEGF-B (50 ng/ml) was added for 5 or 10 min, and whole cell lysates were obtained and analyzed by Western blot. Cell migration assay (FIG. 18C). […] Immunostaining of pancreatic tumors (FIG. 18D). Pancreatic tumors from athymic nude mice treated with solvent (control), gemcitabine (50 mg/kg), or tolfenamic acid (25 and 50 mg/kg) (Dick, 1996) were stained with VEGFR1 antibodies as described below and in a previous report (Dick, 1996).
Panc-1 cells were pretreated with DMSO, 50 μM ampiroxicam, or 50 μM tolfenamic acid for 48 h, and then were treated with VEGF-B (50 ng/ml) for 5 and 10 min. MAPK phosphorylation in the various treatment groups was then determined by western immunoblot analysis as described above. For migration assays, Panc-1 cells were seeded in triplicate in six-well collagen IV coated plates and then treated with the selected non-steroidal anti-inflammatory drugs for 24 h before the scratch was made. A scratch through the central axis of the plate was gently made using a sterile pipette tip. Cells were 70% confluent when the scratch was made. […] Results of this study were obtained at a 16 h time point and one plate was stained using DIFF QUIK (Dade Behring, Newark, Del.).
Previous studies have reported that activation of VEGFR1 by VEGF-B in pancreatic cancer cells results in enhanced phosphorylation of MAPK and increased cell migration and invasion. […] The importance of Sp protein in VEGFR1-dependent Panc-1 cell migration was determined using a cell migration assay on collagen IV-coated plates.

[1] = system: VEGF-B/VEGFR1 signaling (MAPK1/2 phosphorylation); experiment: VEGF-B activation of MAPK in L3.6pl cells; type: cell-based, human; conditions: 50 μM pretreatment for 36 hr, VEGF-B 5 or 10 min
Egr-1 protein = Egr-1 protein expression in L3.6pl cells, Western blot; type: cell-based, human; conditions: 50 μM, 48 h
Description: Cells are washed once with phosphate buffered saline PBS and collected by scraping in 200 μL of lysis buffer [50 mM HEPES, 0.5M sodium chloride, 1.5 mM magnesium chloride, 1 mM EGTA, 10% (v/v) glycerol, 1% Triton X-100, 5 μL/ml of Protease Inhibitor Cocktail (Sigma)]. The lysates from the cells are incubated on ice for 1 hr with intermittent vortexing followed by centrifugation at 40,000 g for 10 min at 4° C. Equal amounts of protein (60 μg) from each treatment group are diluted with loading buffer, boiled and loaded onto 10 and 12.5% SDS-polyacrylamide gel. For vascular endothelial growth factor immunoblots, 100 μg of protein are used. Samples are electrophoresed, transferred to membranes, and proteins detected by incubation with polyclonal primary antibodies Sp1, Sp3, Sp4, HDAC, VEGF (a-20), c-Met, surviving, VEGF, cleaved PARP, and β-tubulin (H-235) followed by blotting with appropriate horseradish peroxidase-conjugated secondary antibody as previously described (Abdelrahim et al, 2004). After autoradiography, band intensities are determined by a scanning laser densitometer (Sharp Electronics Corporation, Mahwah, N.J.) using ZERO-D SCANALYTICS software (Scanalytics Corporation, Billerica, Mass.).
The proximal region of the VEGFR1 promoter contains GC-rich and Egr-1 sites. […]

VEGFR1 = VEGFR1 protein expression in L3.6pl cells (Western blot); type: cell-based, human; conditions: 50 μM, 48 h
Description: FIGS. 14A-14D show tolfenamic acid decreases expression of Sp and VEGFR1 proteins in pancreatic cancer cells. Tolfenamic acid effects on Panc-1 cells (FIG. 14A and FIG. 14B), and L3.6pl cells (FIG. 14C and FIG. 14D). Cells were treated with DMSO, 50 μM tolfenamic acid, or 50 μM ampiroxicam for 48 h, and whole cell lysates were analyzed by Western blot analysis. […] FIGS. 16A-16D show the interaction of Sp proteins with VEGFR1 promoter sequences. […] The specific Sp protein bands and antibody supershifted complexes are indicated with arrows. Effects of tolfenamic acid on VEGFR1 and Egr-1 protein expression in Panc-1 cells (FIG. 16C), and L3.6pl cells (FIG. 16D). […] Samples are electrophoresed, transferred to membranes, and proteins detected by incubation with polyclonal primary antibodies Sp1, Sp3, Sp4, HDAC, VEGF (a-20), c-Met, surviving, VEGF, cleaved PARP, and β-tubulin (H-235) followed by blotting with appropriate horseradish peroxidase-conjugated secondary antibody as previously described (Abdelrahim et al, 2004). After autoradiography, band intensities are determined by a scanning laser densitometer (Sharp Electronics Corporation, Mahwah, N.J.) using ZERO-D […] software (Scanalytics Corporation, Billerica, Mass.).

SMILES	immunostaining of secreted vascular endothelial growth factor protein (VEGF)	cell migration in the absence of VEGF-B (Panc-1 cells; 16 h time point, DMSO set at 100%)	VEGF-B-induced cell migration (Panc-1 cells)	VEGF-B-induced phosphorylation of MAPK1/2 [1]	Egr-1 protein (Egr-1 protein)	VEGFR1 protein levels, Western blot (VEGFR1)
Cc1c(Cl)cccc1Nc1ccccc1C(=O)O [tolfenamic acid]	almost non-detectable	only significantly inhibited by tolfenamic acid	significantly inhibited VEGF-B-induced cell migration	decreased phospho-MARK1/2	unchanged in all treatment groups	decreased VEGFR1 protein levels
CCOC(=O)OC(C)OC1=C(C(=O)Nc2ccccn2)N(C)S(=O)(=O)c2ccccc21 (centres unmarked) [ampiroxicam]	significant lawn of extracellular vascular endothelial growth factor staining		inactive in all assays	increased phosphorylation of MAPK1/2	unchanged in all treatment groups	only the latter compound decreased VEGFR1 protein levels
